Data published in BigSolDB 2.1.

CN1CC(O)c2cc(N=NC(N)=O)c(O)cc21 (centres undefined)
solubility (mole fraction)
Conditions | 278.15 K | 283.15 K | 288.15 K | 293.15 K | 298.15 K | 303.15 K | 308.15 K | 313.15 K | 318.15 K
in DMF | 0.00095 | 0.00115 | 0.00129 | 0.0015 | 0.00177 | 0.00202 | 0.00231 | 0.00277 | 0.00335
in DMSO | 0.00619 | 0.0073 | 0.00863 | 0.01 | 0.0113 | 0.0129 | 0.0146 | 0.0159 | 0.0174
in ethanol | 1.8e-05 | 2.15e-05 | 2.42e-05 | 3.02e-05 | 3.67e-05 | 4.29e-05 | 5.24e-05 | 6.97e-05 | 8.54e-05
in methanol | 3.56e-05 | 4.38e-05 | 5.31e-05 | 6.89e-05 | 8.35e-05 | 9.97e-05 | 0.00012 | 0.000147 | 0.000173
in n-propanol | 1.75e-05 | 2.05e-05 | 2.41e-05 | 2.77e-05 | 3.18e-05 | 3.66e-05 | 4.5e-05 | 5.92e-05 | 7.31e-05
in water | 2.81e-05 | 3.26e-05 | 3.78e-05 | 4.4e-05 | 5.15e-05 | 6.03e-05 | 6.87e-05 | 7.98e-05 | 9.69e-05
